Reference: US8067583B2, “Method for synthesizing furanosteroids” (Trustees of Dartmouth College, priority 2006, dated 2011)

Columns and labels:
[1] = storage stability of isolated isomers; type: physicochemical
Method: A solution of 50.0 mg (0.136 mmol, 1.0 eq) of aldehyde 18 in 13.6 mL of dry CH2Cl2 was stirred in a 25 mL round bottom flask at room temperature under argon. To this solution was slowly added 271 μL (1.0 M in CH2Cl2, 0.271 mmol, 2.0 eq) of TiCl4. […] The solution was then diluted with CH2Cl2 and washed with H2O. The aqueous portion was then extracted three times with CH2Cl2. The combined organic fractions were then dried over MgSO4 and concentrated. Purification via silica gel chromatography (hexane/EtOAc) gave 20.4 mg (59%) of the syn-isomer 19-Syn and 5.4 mg (16%) of the anti-isomer 19-Anti as unstable brown oils. […] The decomposition was of a general nature and none of the stable, known retro-aldol product was observed.

[2] = target: PI3-kinase; conditions: read-out: IC50, inhibitor of PI3-kinase; cited from earlier work
[3] = target: PI3K-Beta (Homo sapiens, UniProt P42338); assay: activity against PI3K-Beta; type: biochemical
PI3K-Beta, sequence (P42338 whole entry, species assumed): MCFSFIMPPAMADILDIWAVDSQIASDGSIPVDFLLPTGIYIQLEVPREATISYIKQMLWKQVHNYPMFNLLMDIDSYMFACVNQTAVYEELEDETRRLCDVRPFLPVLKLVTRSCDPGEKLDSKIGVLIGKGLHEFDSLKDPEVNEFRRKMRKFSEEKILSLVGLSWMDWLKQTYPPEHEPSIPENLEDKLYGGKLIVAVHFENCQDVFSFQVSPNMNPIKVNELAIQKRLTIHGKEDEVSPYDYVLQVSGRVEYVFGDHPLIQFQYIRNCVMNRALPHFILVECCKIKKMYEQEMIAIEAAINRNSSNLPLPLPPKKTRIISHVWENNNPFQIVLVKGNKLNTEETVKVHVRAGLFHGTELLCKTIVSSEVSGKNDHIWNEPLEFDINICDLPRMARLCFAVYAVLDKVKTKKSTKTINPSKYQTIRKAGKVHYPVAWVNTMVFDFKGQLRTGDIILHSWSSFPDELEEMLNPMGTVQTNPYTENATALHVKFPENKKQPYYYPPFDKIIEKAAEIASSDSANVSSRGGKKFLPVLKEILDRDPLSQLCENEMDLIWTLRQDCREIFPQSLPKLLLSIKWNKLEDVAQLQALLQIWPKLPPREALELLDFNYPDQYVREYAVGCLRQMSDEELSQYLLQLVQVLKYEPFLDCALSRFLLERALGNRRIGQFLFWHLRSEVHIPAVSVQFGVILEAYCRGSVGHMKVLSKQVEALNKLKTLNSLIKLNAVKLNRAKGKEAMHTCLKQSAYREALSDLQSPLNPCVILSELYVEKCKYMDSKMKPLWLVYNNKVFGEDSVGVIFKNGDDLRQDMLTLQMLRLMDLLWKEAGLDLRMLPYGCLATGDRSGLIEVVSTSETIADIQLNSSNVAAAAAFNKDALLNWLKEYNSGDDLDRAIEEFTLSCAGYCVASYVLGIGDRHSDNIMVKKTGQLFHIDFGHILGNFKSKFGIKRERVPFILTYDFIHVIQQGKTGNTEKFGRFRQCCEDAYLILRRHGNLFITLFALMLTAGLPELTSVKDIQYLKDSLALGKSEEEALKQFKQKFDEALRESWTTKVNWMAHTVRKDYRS
PI3K-Beta, sequence (P27986 whole entry partner, species assumed): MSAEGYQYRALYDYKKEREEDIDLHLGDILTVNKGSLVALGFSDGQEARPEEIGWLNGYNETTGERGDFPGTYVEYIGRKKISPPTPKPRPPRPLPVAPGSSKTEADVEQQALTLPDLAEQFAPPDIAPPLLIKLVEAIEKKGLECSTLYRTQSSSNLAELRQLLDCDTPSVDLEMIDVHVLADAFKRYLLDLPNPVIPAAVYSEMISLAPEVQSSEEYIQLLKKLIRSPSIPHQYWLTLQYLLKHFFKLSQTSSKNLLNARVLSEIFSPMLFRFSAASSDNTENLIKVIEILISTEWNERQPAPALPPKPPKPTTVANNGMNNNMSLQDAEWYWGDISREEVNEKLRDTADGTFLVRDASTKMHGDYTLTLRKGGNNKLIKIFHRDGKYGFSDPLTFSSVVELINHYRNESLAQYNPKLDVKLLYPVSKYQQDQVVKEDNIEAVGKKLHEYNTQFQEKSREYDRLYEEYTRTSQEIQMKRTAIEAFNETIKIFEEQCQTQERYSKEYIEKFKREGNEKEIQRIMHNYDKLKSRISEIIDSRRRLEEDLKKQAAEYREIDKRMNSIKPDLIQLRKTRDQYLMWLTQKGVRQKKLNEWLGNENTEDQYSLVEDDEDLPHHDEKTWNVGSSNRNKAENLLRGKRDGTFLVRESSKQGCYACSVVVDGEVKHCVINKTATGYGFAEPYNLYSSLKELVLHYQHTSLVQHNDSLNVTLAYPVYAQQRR
From the text: Novel furanosteroids produced according to the present method can be screened for biological activity using any conventional method. For example, PI3 kinase assays are disclosed by Yuan, et al. ((2005) Bioconjugate Chem, 16 (3): 669-675) and Fruman, et al. ((1999) Science 283:393-7). Assays for monitoring the assembly of peptide-MHC class II complexes (Song, et al. (1997) International Immunology 9:1709-1722) and mast cell exocytosis (Marquardt, et al. (1996) J. Immunol. 156:1942-1945) are known in the art as are assays for monitoring cell proliferation.

[4] = target: mammalian Polo-like kinase (Homo sapiens, UniProt P53350); conditions: cited from earlier work
mammalian Polo-like kinase, sequence (P53350 whole entry): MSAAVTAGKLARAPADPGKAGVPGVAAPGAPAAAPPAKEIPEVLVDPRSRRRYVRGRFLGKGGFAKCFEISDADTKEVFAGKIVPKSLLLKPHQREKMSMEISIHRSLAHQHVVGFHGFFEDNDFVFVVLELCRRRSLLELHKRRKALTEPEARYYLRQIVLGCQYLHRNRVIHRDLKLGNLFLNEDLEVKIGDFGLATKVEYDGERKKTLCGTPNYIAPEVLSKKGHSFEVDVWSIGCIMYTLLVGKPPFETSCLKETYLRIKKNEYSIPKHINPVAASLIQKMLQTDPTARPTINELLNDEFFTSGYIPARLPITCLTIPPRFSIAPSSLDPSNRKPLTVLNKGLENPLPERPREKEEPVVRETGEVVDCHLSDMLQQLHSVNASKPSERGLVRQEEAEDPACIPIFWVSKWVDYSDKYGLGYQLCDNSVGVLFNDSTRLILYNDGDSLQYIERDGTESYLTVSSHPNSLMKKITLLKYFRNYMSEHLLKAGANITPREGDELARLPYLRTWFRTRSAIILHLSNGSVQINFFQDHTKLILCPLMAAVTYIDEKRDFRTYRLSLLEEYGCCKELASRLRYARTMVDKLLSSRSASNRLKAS

For `CC12c3ccccc3C(=O)c3occ(c31)CC[C@H]2O` (stereo in doubt) [Compound 19-Syn, 1-Hydroxy-10b-methyl-1,2,3,10b-tetrahydro-5-oxa-acephenanthrylen-6-one], the “stability in a refrigerator” value ([1]; refrigerator) was “stable in a refrigerator for several weeks” and the “stability at room temperature” value ([1]; room temperature, prolonged periods, isolated brown oils) was “Neither isomer was stable at room temperature for prolonged periods”.
In the case of `COC[C@H]1OC(=O)c2coc3c2[C@@]1(C)C1=C(C3=O)[C@@H]2CC[C@H](O)[C@@]2(C)C[C@H]1OC(C)=O` [17β-OH wortmannin], the IC50 [2] is listed as 0.5 nM.
In the case of `C[C@]12COC(=O)c3coc(c31)C(=O)c1ccccc12` [Compound 47], the “activity against PI3K-Beta” value [3] is reported as “sub-micromolar”.
For `COC[C@H]1OC(=O)c2coc3c2C1(C)C1=C(C3=O)[C@@H]2CCC(=O)C2(C)C[C@H]1OC(C)=O` (some centres unmarked) [wortmannin], the “inhibition of mammalian Polo-like kinase” value [4] is listed as “inhibit”.
